According to ChEMBL document CHEMBL4038351, “Structure-Guided Development of Covalent and Mutant-Selective Pyrazolopyrimidines to Target T790M Drug Resistance in Epidermal Growth Factor Receptor” (J Med Chem, 2017):
In brackets after ≈: the same amount, converted by molar mass. Activity calls are given as the source filed them. No cut-off for these calls is given here.

Legend:
[1] = tested on: A-431; assay: cells; format: ADME, cell-based; settings: Homo sapiens
Description: Antiproliferative activity against human A431 cells expressing wild type EGFR incubated for 96 hrs measured on day 5 by CellTiterGlo assay

[2] = tested on: HCC827; assay: cells; format: functional, cell-based; settings: Homo sapiens;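 note: antiproliferative effect on HCC827 cells carrying EGFR delE746_A750 mutation, 96 h exposure, viability read by CellTiter-Glo luminescence on day 5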
Description: Antiproliferative activity against human HCC827 cells harboring EGFR-delE746_A750 mutant incubated for 96 hrs measured on day 5 by CellTiterGlo assay

[3] = tested on: NCI-H1975; assay: cells; format: functional, cell-based; settings: Homo sapiens
[4] = tested on: A549; assay: cells; format: ADME, cell-based; settings: Homo sapiens
Description: Antiproliferative activity against human A549 cells harboring KRAS-G12S mutant incubated for 96 hrs measured on day 5 by CellTiterGlo assay

[5] = target: Epidermal growth factor receptor (Homo sapiens, UniProt P00533)
[6] = target: Epidermal growth factor receptor (Homo sapiens, UniProt P00533, L858R)
[7] = target: Epidermal growth factor receptor (Homo sapiens, UniProt P00533, L858R/T790M)
[8] = tested on: A549; assay: Antiproliferative activity against human A549 cells harboring KRAS-G12S mutant at 30 uM incubated for 96 hrs measured on day 5 by CellTiterGlo assay; format: cell-based; settings: a549, 96 h
[9] = Permeability of the compound at 500 uM incubated for 20 hrs by PAMPA; format: physicochemical
[10] = Apparent permeability across apical to basolateral side in human Caco2 cells at 5 uM incubated for 2 hrs; format: ADME, cell-based, Caco-2
[11] = Apparent permeability across basolateral to apical side in human Caco2 cells at 5 uM incubated for 2 hrs; format: ADME, cell-based, Caco-2
[12] = Metabolic stability in human plasma at 5 uM incubated for 1 hr by LC-MS method; format: ADME, cell-free; settings: read-out: Stability
[13] = Metabolic stability in mouse plasma at 5 uM incubated for 1 hr by LC-MS method; format: ADME, cell-free; settings: read-out: Stability
[14] = Fraction unbound in mouse 100% plasma at 5 uM incubated for 6 hrs by LC-MS method; format: ADME, cell-free
[15] = Kinetic solubility in Hepes buffer at 500 uM at pH 7.4 after 90 mins; format: physicochemical; settings: read-out: Kinetic_solubility
[16] = tested on: A-431; assay: Antiproliferative activity against human A431 cells expressing wild type EGFR at 30 uM incubated for 96 hrs measured on day 5 by CellTiterGlo assay; format: cell-based; settings: a-431, 96 h
[17] = tested on: NCI-H1975; assay: Antiproliferative activity against human NCI-H1975 cells harboring EGFR-L858R/T790M double mutant at 30 uM incubated for 96 hrs measured on day 5 by CellTiterGlo assay; format: functional, cell-based
[18] = in vitro; settings: mouse, liver microsomes
[19] = in vitro; settings: human, liver microsomes

Chain of Epidermal growth factor receptor (Homo sapiens, UniProt P00533) (P00533 whole entry): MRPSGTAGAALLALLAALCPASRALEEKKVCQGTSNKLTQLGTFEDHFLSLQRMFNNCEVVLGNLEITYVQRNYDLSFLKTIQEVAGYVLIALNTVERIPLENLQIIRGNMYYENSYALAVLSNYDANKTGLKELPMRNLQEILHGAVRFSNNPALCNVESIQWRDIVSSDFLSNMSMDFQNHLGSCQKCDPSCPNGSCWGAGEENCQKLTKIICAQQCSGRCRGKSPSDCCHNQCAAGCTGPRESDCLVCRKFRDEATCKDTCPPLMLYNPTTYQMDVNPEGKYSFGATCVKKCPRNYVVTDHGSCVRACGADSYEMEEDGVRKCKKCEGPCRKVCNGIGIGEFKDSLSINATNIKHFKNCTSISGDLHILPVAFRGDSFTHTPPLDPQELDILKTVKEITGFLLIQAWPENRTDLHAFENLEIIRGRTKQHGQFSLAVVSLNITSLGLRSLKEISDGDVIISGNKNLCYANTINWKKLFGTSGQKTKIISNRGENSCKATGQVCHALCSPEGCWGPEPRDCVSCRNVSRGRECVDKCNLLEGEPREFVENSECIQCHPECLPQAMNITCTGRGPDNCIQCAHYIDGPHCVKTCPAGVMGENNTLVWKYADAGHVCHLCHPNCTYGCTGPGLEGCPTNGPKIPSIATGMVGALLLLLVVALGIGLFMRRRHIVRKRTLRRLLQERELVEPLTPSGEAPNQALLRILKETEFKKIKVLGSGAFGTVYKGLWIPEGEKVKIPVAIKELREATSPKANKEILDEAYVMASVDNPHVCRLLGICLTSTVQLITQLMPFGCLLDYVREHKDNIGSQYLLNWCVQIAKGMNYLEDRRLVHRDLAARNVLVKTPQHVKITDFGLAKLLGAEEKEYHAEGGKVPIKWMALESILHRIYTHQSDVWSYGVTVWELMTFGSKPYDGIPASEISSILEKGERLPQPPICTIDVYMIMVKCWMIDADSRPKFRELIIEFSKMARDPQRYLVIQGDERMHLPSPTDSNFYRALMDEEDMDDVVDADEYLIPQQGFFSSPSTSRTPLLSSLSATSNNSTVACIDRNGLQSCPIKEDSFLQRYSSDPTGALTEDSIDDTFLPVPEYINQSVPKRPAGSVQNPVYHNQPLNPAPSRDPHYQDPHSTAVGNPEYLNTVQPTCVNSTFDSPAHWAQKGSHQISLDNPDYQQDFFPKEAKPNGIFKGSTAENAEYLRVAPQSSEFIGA
Chain of Epidermal growth factor receptor (Homo sapiens, UniProt P00533, L858R) (P00533 25-1210 L858R limits assumed): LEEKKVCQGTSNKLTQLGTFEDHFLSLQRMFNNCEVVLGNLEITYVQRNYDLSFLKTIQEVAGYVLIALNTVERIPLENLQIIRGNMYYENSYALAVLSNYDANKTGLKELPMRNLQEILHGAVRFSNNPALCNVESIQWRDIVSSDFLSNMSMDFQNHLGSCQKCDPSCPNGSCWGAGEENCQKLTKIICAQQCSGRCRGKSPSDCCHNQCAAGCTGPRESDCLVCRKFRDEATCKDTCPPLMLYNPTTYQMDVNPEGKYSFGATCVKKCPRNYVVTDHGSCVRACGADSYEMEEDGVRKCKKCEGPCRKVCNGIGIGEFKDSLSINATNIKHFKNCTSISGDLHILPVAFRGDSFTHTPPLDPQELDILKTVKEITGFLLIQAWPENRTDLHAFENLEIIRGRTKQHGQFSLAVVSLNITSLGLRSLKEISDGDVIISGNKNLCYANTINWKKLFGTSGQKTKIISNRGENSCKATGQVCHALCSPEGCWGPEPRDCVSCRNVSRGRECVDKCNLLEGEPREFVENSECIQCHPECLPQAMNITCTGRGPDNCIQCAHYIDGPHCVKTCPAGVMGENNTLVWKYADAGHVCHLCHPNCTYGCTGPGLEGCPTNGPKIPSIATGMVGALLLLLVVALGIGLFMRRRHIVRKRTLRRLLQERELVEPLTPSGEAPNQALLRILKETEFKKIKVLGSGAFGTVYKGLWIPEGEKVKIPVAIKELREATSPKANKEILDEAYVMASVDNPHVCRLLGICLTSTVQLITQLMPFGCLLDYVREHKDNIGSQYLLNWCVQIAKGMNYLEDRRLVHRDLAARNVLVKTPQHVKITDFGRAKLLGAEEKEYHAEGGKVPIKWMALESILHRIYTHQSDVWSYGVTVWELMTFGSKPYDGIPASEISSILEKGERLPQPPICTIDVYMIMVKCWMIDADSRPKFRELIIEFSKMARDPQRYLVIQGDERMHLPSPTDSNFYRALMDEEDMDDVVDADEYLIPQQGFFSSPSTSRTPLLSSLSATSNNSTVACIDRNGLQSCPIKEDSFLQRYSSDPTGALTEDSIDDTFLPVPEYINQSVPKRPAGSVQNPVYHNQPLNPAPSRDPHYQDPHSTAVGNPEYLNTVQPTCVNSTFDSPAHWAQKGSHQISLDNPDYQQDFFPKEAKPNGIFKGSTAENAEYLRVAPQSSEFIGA
Chain of Epidermal growth factor receptor (Homo sapiens, UniProt P00533, L858R/T790M) (P00533 25-1210 T790M/L858R limits assumed): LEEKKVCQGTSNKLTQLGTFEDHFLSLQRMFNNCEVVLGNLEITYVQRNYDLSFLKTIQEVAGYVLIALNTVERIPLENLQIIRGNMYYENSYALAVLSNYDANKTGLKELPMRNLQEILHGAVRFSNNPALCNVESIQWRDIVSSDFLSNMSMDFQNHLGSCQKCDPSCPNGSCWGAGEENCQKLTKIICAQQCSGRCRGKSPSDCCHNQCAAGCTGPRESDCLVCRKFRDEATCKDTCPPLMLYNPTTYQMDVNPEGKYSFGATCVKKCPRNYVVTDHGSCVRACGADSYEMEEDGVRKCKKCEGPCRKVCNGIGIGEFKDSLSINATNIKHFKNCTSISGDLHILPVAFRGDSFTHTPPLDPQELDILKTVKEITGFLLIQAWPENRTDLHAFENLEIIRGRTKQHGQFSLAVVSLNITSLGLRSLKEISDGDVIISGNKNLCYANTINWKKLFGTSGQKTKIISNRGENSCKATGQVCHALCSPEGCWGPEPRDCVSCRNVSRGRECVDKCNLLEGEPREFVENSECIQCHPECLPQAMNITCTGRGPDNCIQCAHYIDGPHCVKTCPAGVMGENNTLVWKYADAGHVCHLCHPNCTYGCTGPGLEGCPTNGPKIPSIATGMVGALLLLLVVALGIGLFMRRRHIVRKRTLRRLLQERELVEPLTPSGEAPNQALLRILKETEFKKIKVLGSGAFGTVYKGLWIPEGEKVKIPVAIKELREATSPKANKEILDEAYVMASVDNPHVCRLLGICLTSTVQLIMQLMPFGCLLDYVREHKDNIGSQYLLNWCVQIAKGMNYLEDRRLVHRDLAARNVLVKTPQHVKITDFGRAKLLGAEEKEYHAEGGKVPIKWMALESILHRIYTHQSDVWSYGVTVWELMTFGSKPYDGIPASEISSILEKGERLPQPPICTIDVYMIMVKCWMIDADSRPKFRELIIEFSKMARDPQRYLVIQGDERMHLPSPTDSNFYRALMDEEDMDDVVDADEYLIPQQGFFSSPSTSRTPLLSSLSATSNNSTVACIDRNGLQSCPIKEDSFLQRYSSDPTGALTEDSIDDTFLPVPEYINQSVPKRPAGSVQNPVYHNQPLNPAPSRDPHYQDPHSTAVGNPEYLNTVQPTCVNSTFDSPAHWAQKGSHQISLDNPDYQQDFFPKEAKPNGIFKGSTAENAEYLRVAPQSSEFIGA

SMILES | EC50 [1] [nM] | EC50 [2] [nM] | EC50 [3] [nM] | EC50 [4] [nM] | IC50 [5] [nM] | IC50 [6] [nM] | IC50 [7] [nM] | Activity [8] | also measured
C=CC(=O)N1CCC[C@@H](n2nc(C#CCC3CCCC3)c3c(N)ncnc32)C1 | 8770 | 3150 | 6930 | 19900 | 750 | 120 | 920 |  | 
C#Cc1nn([C@@H]2CCCN(C(=O)C=C)C2)c2ncnc(N)c12 | 29600 | 2050 | 16200 | 28300 | 1500 | 960 | 690 |  | 
C=CC(=O)N1CCC[C@@H](n2nc(-c3ccc(F)c4ccccc34)c3c(N)ncnc32)C1 | 12800 | 430 | 360 |  |  |  |  | Non-Toxic | 
C=CC(=O)N1CCC[C@@H](n2nc(-c3cccc(F)c3)c3c(N)ncnc32)C1 | 11700 | 70 | 3370 |  | 130 | 10 | 230 | Non-Toxic | 
C=CC(=O)N1CCC[C@@H](n2nc(-c3ccc(O)cc3)c3c(N)ncnc32)C1 | 4170 | 70 | 1840 | 20000 |  |  |  |  | 
CN(C)C/C=C/C(=O)Nc1cc2c(Nc3ccc(F)c(Cl)c3)ncnc2cc1O[C@H]1CCOC1 [AFATINIB] | 200 | < 14 | 600 | 1490 |  |  |  |  | 
CN(C)C/C=C/C(=O)N1CCC[C@@H](n2nc(-c3ccccc3)c3c(N)ncnc32)C1 | 29800 | 1190 | 29900 |  | 3000 | 220 | 6600 | Non-Toxic | 
C=CC(=O)Nc1cccc(Oc2nc(Nc3ccc(N4CCN(C)CC4)cc3OC)ncc2Cl)c1 |  | 20 | 90 | 3990 |  |  |  |  | 
C=CC(=O)N1CCC[C@@H](n2nc(C3CC3)c3c(N)ncnc32)C1 | 28100 | 310 | 5830 |  | 700 | 110 | 220 | Non-Toxic | 
C=CC(=O)N1CCC[C@@H](n2nc(-c3ccc(Oc4ccccc4)cc3)c3c(N)ncnc32)C1 [IBRUTINIB] | 2380 | 450 | 640 |  |  |  |  | Non-Toxic | permeability [9]: 38%; Papp ([10]; caco-2, 2 h, 5 µM): 40 ×10⁻⁸ cm/s; Papp ([11]; caco-2, 2 h, 5 µM): 0.9 ×10⁻⁸ cm/s; remaining at 1 h, 5 µM [12]: 80%; remaining at 1 h, 5 µM [13]: 96%; fraction unbound at 6 h, 5 µM [14]: 0.01; solubility kinetic at 1.5 h, 500 µM [15]: 57 µM (≈ 25.1 µg/mL)
C=CC(=O)N1CCC[C@@H](n2nc(-c3ccc(C(F)(F)F)cc3)c3c(N)ncnc32)C1 | 8870 | 160 | 1380 |  | 60 | 60 | 270 | Non-Toxic | 
CCC(=O)N1CCC[C@@H](n2nc(-c3ccc(C(F)(F)F)cc3)c3c(N)ncnc32)C1 |  | 23600 |  |  | 6500 | 5900 | > 10000 | Non-Toxic | Activity [16]: Non-Toxic; Activity [17]: inactive
C=CC(=O)N1CCC[C@@H](n2nc(-c3cnc4[nH]ccc4c3)c3c(N)ncnc32)C1 | 1390 | < 14 | 280 | 3450 | 10 |  | 3 |  | permeability [9]: 27%; remaining at 1 h, 5 µM [12]: 98%; remaining at 1 h, 5 µM [13]: 96%; fraction unbound at 6 h, 5 µM [14]: 0.37; solubility kinetic at 1.5 h, 500 µM [15]: 457 µM (≈ 178 µg/mL); microsomal CLint at 50 min, 3 µM [18]: 495 µL/min/mg; microsomal CLint at 50 min, 3 µM [19]: 108 µL/min/mg
C=CC(=O)N1CCC[C@@H](n2nc(-c3ccc(F)cc3)c3c(N)ncnc32)C1 |  |  |  |  | 130 | 30 | 280 |  | 
C=CC(=O)N1CCC[C@@H](n2nc(-c3ccc(N(C)C)c4ccccc34)c3c(N)ncnc32)C1 | 24500 | 2130 | 2670 |  | 810 | 270 | 210 | Non-Toxic | 
C=CC(=O)N1CCC[C@@H](n2ncc3c(N)ncnc32)C1 |  | 9900 |  |  | 6900 | 2500 | 1600 | Non-Toxic | Activity [16]: Non-Toxic; Activity [17]: inactive
C=CC(=O)N1CCC[C@@H](n2nc(Cc3ccccc3)c3c(N)ncnc32)C1 | 19900 | 150 | 690 |  | 20 | 3 | 10 | Non-Toxic | 
C=CC(=O)N1CCC[C@@H](n2nc(C#CC3CCCC3)c3c(N)ncnc32)C1 | 10900 | 1150 | 8270 | 27100 | 750 | 60 | 1400 |  | 
CCC(=O)N1CCC[C@@H](n2nc(-c3cccc(F)c3)c3c(N)ncnc32)C1 |  | 22300 |  |  | > 10000 | 3400 | > 10000 | Non-Toxic | Activity [16]: Non-Toxic; Activity [17]: inactive
C=CC(=O)N1CCC[C@@H](n2nc(-c3ccccc3)c3c(N)ncnc32)C1 | 12700 | 70 | 3670 | 21700 | 140 | 10 | 240 |  | permeability [9]: 59%; remaining at 1 h, 5 µM [12]: 97%; remaining at 1 h, 5 µM [13]: 91%; fraction unbound at 6 h, 5 µM [14]: 0.33; solubility kinetic at 1.5 h, 500 µM [15]: 461 µM (≈ 161 µg/mL); microsomal CLint at 50 min, 3 µM [18]: 924 µL/min/mg; microsomal CLint at 50 min, 3 µM [19]: 122 µL/min/mg
CCC(=O)N1CCC[C@@H](n2nc(-c3ccc(F)cc3)c3c(N)ncnc32)C1 |  | 25900 |  |  | > 10000 | 5000 | > 10000 | Non-Toxic | Activity [16]: Non-Toxic; Activity [17]: inactive
C=CC(=O)N1CCC[C@@H](n2nc(-c3cccc(C(F)(F)F)c3)c3c(N)ncnc32)C1 | 16000 | 650 | 4160 | 22200 |  | 30 | 220 |  | permeability [9]: 76%; remaining at 1 h, 5 µM [12]: 96%; remaining at 1 h, 5 µM [13]: 99%; fraction unbound at 6 h, 5 µM [14]: 0.09; solubility kinetic at 1.5 h, 500 µM [15]: 427 µM (≈ 178 µg/mL); microsomal CLint at 50 min, 3 µM [18]: 2770 µL/min/mg; microsomal CLint at 50 min, 3 µM [19]: 578 µL/min/mg
C=CC(=O)Nc1cccc(Nc2nc(Nc3ccc(N4CCN(C(C)=O)CC4)cc3OC)ncc2C(F)(F)F)c1 [ROCILETINIB] |  | 45 | 100 |  |  |  |  |  | permeability [9]: 88%; Papp A→B at 2 h, 5 µM ([10]; Caco-2): 0.05 ×10⁻⁶ cm/s; Papp B→A at 2 h, 5 µM ([11]; Caco-2): 0.068 ×10⁻⁶ cm/s; remaining at 1 h, 5 µM [12]: 78%; remaining at 1 h, 5 µM [13]: 75%; fraction unbound at 6 h, 5 µM [14]: 0.01; solubility kinetic at 1.5 h, 500 µM [15]: 10 µM (≈ 5.56 µg/mL); microsomal CLint at 50 min, 3 µM [18]: 81 µL/min/mg; microsomal CLint at 50 min, 3 µM [19]: 5.1 µL/min/mg
CN(C)C/C=C/C(=O)N1CCC[C@@H](n2nc(-c3cccc(C(F)(F)F)c3)c3c(N)ncnc32)C1 | 13700 | 6390 | 20600 |  | 7300 | 1000 | 6100 | Non-Toxic | 
